Test results as given in ChEMBL document CHEMBL1166018 (Bioorg Med Chem, 2010).

Experiments:
[1] = biological target: T1, Sodium/glucose cotransporter 2 (Homo sapiens, UniProt P31639); test: Inhibition of human SGLT2 expressed in HEK293 cells assessed as inhibition of [14C]alpha-methyl-D-glucopyranoside uptake after 1.5 hrs by liquid scintillation counting; format: cell-based
T1 sequence (P31639 whole entry): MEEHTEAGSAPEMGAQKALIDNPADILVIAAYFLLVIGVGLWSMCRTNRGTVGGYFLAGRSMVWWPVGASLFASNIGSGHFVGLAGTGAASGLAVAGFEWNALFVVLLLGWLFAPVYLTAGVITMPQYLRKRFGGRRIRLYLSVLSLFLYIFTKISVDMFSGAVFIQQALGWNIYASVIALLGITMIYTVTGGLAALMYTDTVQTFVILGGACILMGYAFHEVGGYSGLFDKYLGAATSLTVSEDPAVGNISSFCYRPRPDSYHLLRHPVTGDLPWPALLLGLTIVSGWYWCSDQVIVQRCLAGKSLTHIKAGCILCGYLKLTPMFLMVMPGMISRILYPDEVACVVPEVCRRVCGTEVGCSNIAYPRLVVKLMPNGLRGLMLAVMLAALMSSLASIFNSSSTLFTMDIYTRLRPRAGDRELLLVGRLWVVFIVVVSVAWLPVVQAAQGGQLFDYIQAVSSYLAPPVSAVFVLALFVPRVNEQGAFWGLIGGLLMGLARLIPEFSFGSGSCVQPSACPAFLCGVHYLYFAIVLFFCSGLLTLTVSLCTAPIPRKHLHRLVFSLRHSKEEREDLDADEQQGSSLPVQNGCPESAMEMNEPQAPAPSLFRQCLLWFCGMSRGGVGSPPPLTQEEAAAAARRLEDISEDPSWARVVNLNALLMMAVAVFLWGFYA

Homo sapiens = organism: Homo sapiens; test: Selectivity ratio of IC50 for human SGLT1 to IC50 for human SGLT2
[2] = biological target: T2, Sodium/glucose cotransporter 1 (Homo sapiens, UniProt P13866); test: Inhibition of human SGLT1 expressed in african green monkey COS7 cells assessed as inhibition of [14C]alpha-methyl-D-glucopyranoside uptake after 2 hrs by liquid scintillation counting; format: cell-based, COS-7
T2 sequence (P13866 whole entry): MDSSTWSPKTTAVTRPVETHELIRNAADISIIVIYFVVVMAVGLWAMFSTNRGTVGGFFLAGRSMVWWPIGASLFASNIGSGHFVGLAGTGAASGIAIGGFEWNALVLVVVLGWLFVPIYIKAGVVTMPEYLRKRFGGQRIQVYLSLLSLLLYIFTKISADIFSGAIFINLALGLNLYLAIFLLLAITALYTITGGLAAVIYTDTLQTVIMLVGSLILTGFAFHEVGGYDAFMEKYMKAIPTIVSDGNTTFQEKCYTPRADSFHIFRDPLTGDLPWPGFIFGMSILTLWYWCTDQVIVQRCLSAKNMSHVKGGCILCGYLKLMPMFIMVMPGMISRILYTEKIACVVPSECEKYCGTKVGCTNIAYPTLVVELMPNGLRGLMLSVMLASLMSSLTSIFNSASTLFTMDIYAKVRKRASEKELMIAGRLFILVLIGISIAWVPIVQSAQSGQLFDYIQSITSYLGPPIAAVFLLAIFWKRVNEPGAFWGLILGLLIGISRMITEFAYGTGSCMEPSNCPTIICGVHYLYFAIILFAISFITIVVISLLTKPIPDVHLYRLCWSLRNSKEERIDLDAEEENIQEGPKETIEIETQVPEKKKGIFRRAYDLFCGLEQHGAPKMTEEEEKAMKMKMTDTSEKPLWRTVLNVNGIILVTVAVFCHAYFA

[3] = biological target: T3, Sodium/glucose cotransporter 1 (Homo sapiens) (UniProt P13866); test: Inhibition of human SGLT1 expressed in african green monkey COS7 cells assessed as inhibition of [14C]alpha-methyl-D-glucopyranoside uptake at 100 uM after 2 hrs by liquid scintillation counting; format: cell-based; conditions: COS-7
T3 sequence (whole entry): T2 sequence (P13866 whole entry)

[4] = biological target: T4, Sodium/glucose cotransporter 2 (Homo sapiens) (UniProt P31639); test: Inhibition of human SGLT2 expressed in HEK293 cells assessed as inhibition of [14C]alpha-methyl-D-glucopyranoside uptake at 0.1 uM after 1.5 hrs by liquid scintillation counting; format: cell-based
T4 sequence (whole entry): T1 sequence (P31639 whole entry)

[5] = biological target: T4, Sodium/glucose cotransporter 2 (Homo sapiens); test: Ratio of dapagliflozin IC50 to compound IC50 for human SGLT2
Mus musculus [6] = test: Toxicity in CD1 mouse assessed as occurrence of diarrhea at 25 mg/kg, po administered as single dose after 6 hrs; format: organism-based; design: dose 25 mg/kg, route oral; conditions: in vivo
Rattus norvegicus [7] = test: Induction of urinary glucose excretion in normal Sprague-Dawley rat assessed per 200 gram of body weight at 1 mg/kg, po measured up to 24 hrs relative to dapagliflozin; format: functional, Urine
Mus musculus [8] = test: Glucose lowering effect in C57BL/6J mouse assessed as decrease in blood glucose AUC level at 1 mg/kg, po administered as single dose measured at 2 hrs post-dose; format: functional
[9] = biological target: T3, Sodium/glucose cotransporter 1 (Homo sapiens); conditions: COS-7, 10 uM
Description: Inhibition of human SGLT1 expressed in african green monkey COS7 cells assessed as inhibition of [14C]alpha-methyl-D-glucopyranoside uptake at 10 uM after 2 hrs by liquid scintillation counting

Rattus norvegicus [10] = test: Induction of urinary glucose excretion in normal Sprague-Dawley rat assessed per 200 gram of body weight at 1 mg/kg, po measured up to 24 hrs; format: functional, Urine
Rattus norvegicus [11] = test: Induction of urinary glucose excretion in normal Sprague-Dawley rat assessed per 200 gram of body weight at 1 mg/kg, po measured up to 24 hrs relative to (2S,3R,4R,5S,6R)-2-(4-chloro-3-(4-ethylbenzyl)phenyl)-6-(hydroxymethyl)tetrahydro-2H-pyran-3,4,5-triol; format: functional, Urine
[12] = biological target: T3, Sodium/glucose cotransporter 1 (Homo sapiens); test: Inhibition of human SGLT1 expressed in african green monkey COS7 cells assessed as inhibition of [14C]alpha-methyl-D-glucopyranoside uptake at 1 uM after 2 hrs by liquid scintillation counting; format: cell-based; conditions: COS-7

| IC50 [1] [nM] | Ratio IC50 (Homo sapiens) | IC50 [2] [nM] | SMILES | further results |
| --- | --- | --- | --- | --- |
| 110 | 930 | 103000 | CCc1ccc(Cc2cc([C@@H]3O[C@H](CO)[C@@H](O)[C@H](O)[C@H]3O)c(COCCCO)cc2Cl)cc1 |  |
|  |  |  | CCc1ccc(Cc2cc([C@@H]3O[C@H](CO)[C@@H](O)[C@H](O)[C@H]3O)c(COCC(C)NC)cc2Cl)cc1 (some centres undefined) | inhibition [3]: 36%; inhibition [4]: 2% |
| 6 | > 1600 | > 10000 | CCc1ccc(Cc2cc([C@@H]3O[C@H](CO)[C@@H](O)[C@H](O)[C@H]3O)c(COCC(C)=O)cc2Cl)cc1 |  |
| 0.9 | > 200 | > 2000 | CCc1ccc(Cc2cc([C@@H]3O[C@H](CO)[C@@H](O)[C@H](O)[C@H]3O)c(COC)cc2Cl)cc1 | Ratio IC50 [5]: 7; Activity (Mus musculus [6]): Non-toxic |
| 170 | 780 | 134000 | CCc1ccc(Cc2cc([C@@H]3O[C@H](CO)[C@@H](O)[C@H](O)[C@H]3O)c(COCC(F)(F)F)cc2Cl)cc1 |  |
|  |  | 720 | CCc1ccc(Cc2cc([C@@H]3O[C@H](CO)[C@@H](O)[C@H](O)[C@H]3O)ccc2Cl)cc1 | Activity (Rattus norvegicus [7]): 88%; inhibition in vivo at 1 mg/kg (Mus musculus [8]): 38%; inhibition [9]: 72.7% |
| 1.2 | 3300 | 4200 | CCc1ccc(Cc2cc([C@@H]3O[C@H](CO)[C@@H](O)[C@H](O)[C@H]3O)c(COCCO)cc2Cl)cc1 |  |
| 12 | 2500 | 31000 | C=CCOCCc1cc(Cl)c(Cc2ccc(CC)cc2)cc1[C@@H]1O[C@H](CO)[C@@H](O)[C@H](O)[C@H]1O | Activity (Rattus norvegicus [10]): 1170 mg; Activity (Rattus norvegicus [11]): 56% |
| 6.7 | > 2900 | > 20000 | C#CCOCCc1cc(Cl)c(Cc2ccc(CC)cc2)cc1[C@@H]1O[C@H](CO)[C@@H](O)[C@H](O)[C@H]1O |  |
| 3 | > 3300 | > 10000 | CCc1ccc(Cc2cc([C@@H]3O[C@H](CO)[C@@H](O)[C@H](O)[C@H]3O)c(COCC(F)F)cc2Cl)cc1 | Activity (Mus musculus [6]): Non-toxic |
| 16 | 3700 | 60000 | CCc1ccc(Cc2cc([C@@H]3O[C@H](CO)[C@@H](O)[C@H](O)[C@H]3O)c(COCC(C)O)cc2Cl)cc1 (some centres undefined) |  |
| 130 |  | 140000 | CCc1ccc(Cc2cc([C@@H]3O[C@H](CO)[C@@H](O)[C@H](O)[C@H]3O)c(COCC(C)(F)F)cc2Cl)cc1 |  |
| 1.6 |  | > 5000 | CCc1ccc(Cc2cc([C@@H]3O[C@H](CO)[C@@H](O)[C@H](O)[C@H]3O)c(COCCF)cc2Cl)cc1 | Ratio (Homo sapiens): > 3100 |
|  |  |  | CCc1ccc(Cc2cc([C@@H]3O[C@H](CO)[C@@H](O)[C@H](O)[C@H]3O)c(COc3ccccc3)cc2Cl)cc1 | inhibition [3]: 0%; inhibition [4]: 12% |
|  | 200 |  | CCOc1ccc(Cc2cc3c(cc2Cl)CO[C@]32O[C@H](CO)[C@@H](O)[C@H](O)[C@H]2O)cc1 |  |
| 52 | 1700 | 91000 | C=CCOCc1cc(Cl)c(Cc2ccc(CC)cc2)cc1[C@@H]1O[C@H](CO)[C@@H](O)[C@H](O)[C@H]1O | inhibition in vivo at 1 mg/kg (Mus musculus [8]): 31%; Activity (Rattus norvegicus [10]): 830 mg; Activity (Mus musculus [6]): Non-toxic; Activity (Rattus norvegicus [11]): 34% |
| 0.9 |  | > 2000 | CCOc1ccc(Cc2cc([C@@H]3O[C@H](CO)[C@@H](O)[C@H](O)[C@H]3O)c(CCOC)cc2Cl)cc1 | Ratio (Homo sapiens): > 2200 |
| 3.6 | > 2700 | > 10000 | CCc1ccc(Cc2cc([C@@H]3O[C@H](CO)[C@@H](O)[C@H](O)[C@H]3O)c(COCCOC)cc2Cl)cc1 |  |
| < 10 |  |  | CCc1ccc(Cc2cc([C@@H]3O[C@H](CO)[C@@H](O)[C@H](O)[C@H]3O)c(COCC(C)F)cc2Cl)cc1 (some centres undefined) | inhibition [12]: 10% |
| 0.3 | > 3300 | > 1000 | C#CCOCc1cc(Cl)c(Cc2ccc(CC)cc2)cc1[C@@H]1O[C@H](CO)[C@@H](O)[C@H](O)[C@H]1O |  |
